Values of other authors as cited in US5266487A, “Apparatus for the treatment of lignocellulosic materials” (Knobbe, Martens, Olson & Bear, priority 1992, dated 1993).
Like-named read-outs stand apart in the source and are kept apart here.

Target: alcohol oxidase (methanol oxidase), preferred enzyme from Hansenula polymorpha ATCC 34438 (Pichia angusta, UniProt P04841)
Sequence (P04841 whole entry): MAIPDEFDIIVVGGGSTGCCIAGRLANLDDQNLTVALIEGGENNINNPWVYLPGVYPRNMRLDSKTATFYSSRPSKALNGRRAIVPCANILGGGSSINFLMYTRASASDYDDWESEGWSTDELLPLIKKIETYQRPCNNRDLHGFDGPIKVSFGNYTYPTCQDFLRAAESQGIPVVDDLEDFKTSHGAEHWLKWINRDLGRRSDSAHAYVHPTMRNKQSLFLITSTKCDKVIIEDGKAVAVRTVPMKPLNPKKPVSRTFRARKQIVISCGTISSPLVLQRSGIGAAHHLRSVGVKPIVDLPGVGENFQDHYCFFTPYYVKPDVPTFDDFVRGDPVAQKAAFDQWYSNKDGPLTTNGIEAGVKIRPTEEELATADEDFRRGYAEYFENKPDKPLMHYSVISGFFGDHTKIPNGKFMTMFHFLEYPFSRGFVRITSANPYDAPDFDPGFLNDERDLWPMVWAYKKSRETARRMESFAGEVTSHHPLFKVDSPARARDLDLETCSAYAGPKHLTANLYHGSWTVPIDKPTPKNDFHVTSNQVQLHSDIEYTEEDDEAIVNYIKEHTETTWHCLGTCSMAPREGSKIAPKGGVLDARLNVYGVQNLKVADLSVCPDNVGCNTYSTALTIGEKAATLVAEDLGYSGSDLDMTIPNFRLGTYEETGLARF

SMILES | Km (read-out: Km methanol, see Van Dijken et al., Arch. Microbiol. 111, 137 (1976)) | Km (read-out: Km oxygen, see Van Dijken et al., Arch. Microbiol. 111, 137 (1976))
CO [methanol] | 2000 µM | –
O=O [oxygen] | – | 400 µM
